Columns and labels:
Assay type in all cases: in vivo
[1] = system: Scirpus juncoides; experiment: Test Example 12: herbicidal effect test by treatment during growing period in paddy field; settings: 120 g/10a; treatment seven days after sowing in flooded paddy pot; assessed 14 days after treatment
Method in brief: (§1)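 Growing-period treatment in flooded paddy pots: the diluted emulsifiable concentrate was dripped in at 120 g a.i. per 10 are seven days after seeding. Inhibition is expressed as percent reduction in dry weight versus untreated pots, measured 14 days later in duplicate.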

[2] = system: Echinochloa crus-galli; experiment: as above; settings: 120 g/10a; treatment seven days after sowing in flooded paddy pot; assessed 14 days after treatment
Method in brief: as §1

[3] = system: Monochoria vaginalis; experiment: as above; settings: 120 g/10a; treatment seven days after sowing in flooded paddy pot; assessed 14 days after treatment
Method in brief: as §1

[4] = system: Lindernia pyxidaria; experiment: as above; settings: 120 g/10a; treatment seven days after sowing in flooded paddy pot; assessed 14 days after treatment
Method in brief: as §1

[5] = system: Amaranthus viridis; experiment: Test Example 14: herbicidal effect test by foliage treatment in upland field; settings: 7 days after sowing, 120 g/10a, 14 days after treatment
Method in brief: (§2)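 Post-sowing spray at day 7, 120 g a.i./10 are in 100 L water/10 are; alluvial soil pots, duplicate plots; endpoint day 14, % suppression from dry weight relative to untreated.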

[6] = system: Echinochloa crus-galli; experiment: as above; settings: 7 days after sowing, 120 g/10a, 14 days after treatment
Method in brief: as §2

[7] = system: Amaranthus viridis; experiment: Test Example 13: herbicidal effect test by soil treatment in upland field; settings: 120 g/10a, 14 days after treatment
Method in brief: (§3)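 Field alluvial soil in 36 cm^2 pots had 20 seeds of each weed mixed into its top 1 cm. One day after sowing, a water-diluted emulsifiable concentrate was sprayed onto the soil at 100 liter per 10 are (120 g active ingredient per 10 are), with two replicates. Weed suppression (%) was assessed after 14 days.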

[8] = system: Echinochloa crus-galli; experiment: as above; settings: 120 g/10a, 14 days after treatment
Method in brief: as §3

[9] = system: Chenopodium album; experiment: as above; settings: 120 g/10a, 14 days after treatment
Method in brief: as §3

[10] = system: crabgrass; experiment: as above; settings: 120 g/10a, 14 days after treatment
Method in brief: as §3

[11] = system: Scirpus juncoides; experiment: Test Example 11: herbicidal effect test by soil treatment in paddy field; settings: 120 g/10a active ingredient, 14 days after treatment
Method in brief: (§4)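 Puddled paddy soil with N:P:K 17:17:17 fertilizer in Wagner pots; 30 seeds per species sown at 0–1 cm, flooded to about 3 cm, kept in a glass greenhouse. Water-diluted emulsifiable concentrate dripped in immediately after sowing at 120 g a.i. per 10 are. Suppression from dry weight versus untreated at 14 days.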

[12] = system: Echinochloa crus-galli; experiment: as above; settings: 120 g/10a active ingredient, 14 days after treatment
Method in brief: as §4

[13] = system: Monochoria vaginalis; experiment: as above; settings: 120 g/10a active ingredient, 14 days after treatment
Method in brief: as §4

[14] = system: Lindernia pyxidaria; experiment: as above; settings: 120 g/10a active ingredient, 14 days after treatment
Method in brief: as §4

[15] = system: Chenopodium album; experiment: Test Example 14: herbicidal effect test by foliage treatment in upland field; settings: 7 days after sowing, 120 g/10a, 14 days after treatment
Method in brief: as §2

[16] = system: crabgrass; experiment: as above; settings: 7 days after sowing, 120 g/10a, 14 days after treatment
Method in brief: as §2

SMILES | Weed suppression rate (%) Scirpus juncoides [1] | Weed suppression rate (%) Echinochloa crus-galli [2] | Weed suppression rate (%) Monochoria vaginalis [3] | Weed suppression rate (%) Lindemia pyxidaria [4] | herbicidal effect, Amaranthus viridis [5] | herbicidal effect, Echinochloa crus-galli [6] | herbicidal effect, Amaranthus viridis [7] | herbicidal effect, Echinochloa crus-galli [8] | herbicidal effect, Chenopodium album [9] | herbicidal effect, Crabgrass [10] | Weed suppression rate (%) Scirpus juncoides [11] | Weed suppression rate (%) Echinochloa crus-galli [12] | Weed suppression rate (%) Monochoria vaginalis [13] | Weed suppression rate (%) Lindemia pyxidaria [14] | herbicidal effect, Chenopodium album [15] | herbicidal effect, Crabgrass [16]
CC(C)N(C(=O)n1cnn(S(C)(=O)=O)c1=O)c1ccc(Cl)cn1 [Compound 11-38] | 90% | 100% | 80% | 90% | 0% | 90% | 0% | 90% | 40% | 90% | 70% | 100% | 70% | 80% | 0% | 90%
CCS(=O)(=O)n1ncn(C(=O)N(c2ccc(F)cc2F)C(C)C)c1=O [Compound 11-46] | 90% | 100% | 90% | 100% | 60% | 100% | 100% | 100% | 100% | 100% | 90% | 100% | 100% | 100% | 90% | 100%
CC(C)N(C(=O)n1cnn(S(=O)(=O)C(C)C)c1=O)c1ccccc1 [Compound 11-48] | 70% | 90% | 90% | 70% | 40% | 90% | 90% | 80% | 80% | 90% | 90% | 90% | 80% | 80% | 70% | 100%
CC(C)N(C(=O)n1cnn(S(=O)(=O)C(C)C)c1=O)c1cccc(F)c1F [Compound 11-58] | 100% | 100% | 100% | 100% | 30% | 90% | 70% | 100% | 70% | 90% | 100% | 100% | 100% | 100% | 70% | 100%
